These results are taken from patent publication US11001591B2, “TRAF 6 inhibitors” (HELMHOLTZ ZENTRUM MUENCHEN—DEUTSCHES FORSCHUNGSZENTRUM FÜR …, priority 2016, dated 2021).

pIC50: −log10 of the molar value. Read-outs that look alike come from different tables or passages of the source.

Data set [1] deals with interaction of Ubc13 with Uev1a (Homo sapiens, UniProt P61088+Q13404). Kind of data set: Ubc13-Uev1a interaction. Format: binding.
Data set [2] relates to 78 oncological cell lines and control cell lines HS-5 and MCF 10A. Kind of data set: Omniscreen cancer cell line panel, CellTiter-Glo. Particulars: nine concentrations, top 80 μM, 72 hours. In kind it is cell-based. Here is the method:
The effect of C25-140 on cell viability of 80 cancer cell lines using the CellTiter-Glo luminescent cell viability assay was conducted at CrownBioscience Inc. at the testing facility in Beijing. Here, 80 selected cell lines were cultured in media supplemented with 10-15% FBS, in the temperature of 37° C., 5% CO2 and 95% humidity. Culture medium was purchased from GIBCO or Sigma, USA. The cells were treated with C25-140 in 9 dose levels starting at 80 μM with 3.16-fold serial dilutions. Cisplatin served as a reference control and started with a top working concentration of 100 μM. Test samples were incubated for 72 hours and cell viability was measured by the CellTiter-Glo assay.
(In general: ATP-based viability assays read luminescence as a measure of living cells.)

Data set [3] is described as follows: Pharmacokinetic studies IV, PO, IP. In kind it is in vivo. Particulars: for half-life: read-out: in vivo half-life in circulation. Here is the method:
(§1) All ADME (plasma stability, plasma protein binding, microsomal stability, Log D, Caco-2 assay, CYP450 inhibition and hERG predictor assay) as well as pharmacokinetic studies (Tmax, Cmax, AUC0-240 min, Mean Residence Time, Elimination half life, Elimination rate constant, Volume of Distribution and Clearance) of C25-140 (compound 3) were conducted by Bienta Enamine Biology Services of Bienta/Enamine Ltd.
The inventors also tested the pharmacokinetics (PK) of C25-140 after intravenous (IV), peroral (PO) and intraperitoneal (IP) injection of each 10 mg/kg compound. All the analyzed data are summarized in FIG. 9B and the concentration/time-course graph for IP administration is shown in FIG. 9C.

The next data set concerns the target T1, hERG (Homo sapiens, UniProt Q12809).
T1 construct: Bienta/Enamine Ltd. (contract lab)
Kind of data set: hERG predictor assay. Format: in vitro ADME. Here is the method:
as §1

The test system of a further data set is p-IκBα (Ser32/36). Kind of data set: ALPHASurefire p-IκBα in IL-1β stimulated MEF cells. In kind it is cell-based, mouse. Particulars: compared with C25, C25-189, C25-167; FIG. 1C. Here is the method:
In order to detect protein levels of p-IκBα (Ser32/36) as well as total IκBα, 1×10^4 MEF cells were seeded in 96-well plates, treated with compound for 6 hours and stimulated with 1 ng/ml IL-1β for 7 minutes. The p-IκBα and total IκBα protein levels were analyzed using the ALPHASurefire kits (PerkinElmer) following the manufacturer's instruction. The general 2-plate protocol was conducted.

Another data set has as its target T2, TRAF6-UBC13 interaction (Homo sapiens, UniProt Q9Y4K3).
T2 construct: RING-Zincfinger1 (RZ1) domain (residues 50-159) of TRAF6 wildtype; made in house; host or cells: E. coli BL21 codon plus RIPL
T2 sequence (Q9Y4K3 50-159): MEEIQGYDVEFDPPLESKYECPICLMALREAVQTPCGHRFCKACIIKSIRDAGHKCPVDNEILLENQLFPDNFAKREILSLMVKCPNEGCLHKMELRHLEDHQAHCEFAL
Kind of data set: ALPHAScreen TRAF6WTStrepII-Ubc13FH interaction assay. In kind it is binding. The note with it: inhibition of TRAF6-UBC13 interaction. An excerpt:
In order to identify small molecules that specifically target the RZ1 domain of TRAF6 and thereby prevent its binding to Ubc13, the ALPHAScreen technology (PerkinElmer) was chosen to detect TRAF6WTStrepII-Ubc13FH interaction in High-Throughput-Screenings as well as Structure Activity Relationship (SAR) analysis.
For performance of an automated ALPHAScreen assay, all following components were pre-diluted in ALPHAScreen buffer (1×PBS, 0.5% BSA, 0.01% Tween-20). First, the TRAF6 protein (end concentration 100 nM, 30 μL volume) was added to 384-well-opti-plates involving the MultiFlo dispensing system (BioTek) followed by transfer of the compounds via the Sciclone G3 transfer station (PerkinElmer). After addition of Ubc13FH (end concentration 75 nM, 10 μL volume) with the MultiFlo system and incubation for one hour at room temperature, both beads (Strep-Tactin Alpha Donor beads and Nickel-Chelate acceptor beads; end concentrations 4 μg each, 10 μL volume each) were mixed and added using the MultiFlo system in subdued light. Read-out of the plates occurred after another hour of incubation at room temperature. Statistical parameters including the coefficient of variation, Z′ factor and signal window were calculated to determine the quality of the HTS campaign. To evaluate the efficacy of the compounds, ALPHAScreen units of compound-treated samples were referred to DMSO control treated samples. Thereby, the TRAF6D57K mutant served as the control for minimum signal and was included on every plate of the screening. Compounds that inhibited TRAF6WTStrepII-Ubc13FH by more than 25% were considered as actives. After elimination of ALPHAScreen frequent hitter compounds and His-tag frequent hitters (Schorpp, K., I. Rothenaigner, E. Salmina, et al., Identification of Small-Molecule Frequent Hitters from AlphaScreen High-Throughput Screens. J Biomol Screen, 2014. 19(5): p. 715-26), 178 compounds were defined as primary hits and were subsequently tested in five-point serial dilution assays (2.5-40 μM) in TRAF6WTStrepII-Ubc13FH ALPHAScreen experiments. Only compounds with dose-dependent effects on TRAF6WTStrepII-Ubc13FH (n=27) were taken for further research. For analog testing, all compounds were analyzed in ten-point titration (0.2-100 μM) in TRAF6WTStrepII-Ubc13FH ALPHAScreen experiments. In parallel, the compounds were tested in the ALPHAScreen TruHits Kit (PerkinElmer) to rule out unspecific interference with the ALPHAScreen technology.

A further data set relates to IL-2 and TNFα. Kind of data set: ELISA cytokine secretion of Jurkat T-cells. The note with it: PMA/Ionomycin. In kind it is cell-based, human. Here is the method: For measurement of cytokine secretion, 2×10^5 Jurkat T-cells or primary CD4^+ T-cells or human PBMCs per sample were seeded, treated with compound for 6 hours and stimulated as indicated. 20 hours after stimulation, supernatants were harvested and analyzed with the IL-2, IL-1β and TNFα Ready-Set-Go! ELISA (2nd Generation) kits provided by Affymatrix eBioscience.
On the technique in general: In an ELISA, binding on a coated surface is turned into a signal by an enzyme label.

The next data set addresses T3, E6AP (Homo sapiens, UniProt Q05086).
T3 construct: purchased Boston Biochem one of K-102, K-260, K-200B, K-220, K-240, K-270
Kind of data set: In vitro ubiquitination assay, E6AP. The note with it: HECT E3 ligase. In kind it is biochemical. Here is the method:
For analysis of clAP1, MDM2, TRIM63, RNF4, ITCH and E6AP mediated poly-ubiquitination, the respective ubiquitin ligase kit from Boston Biochem (K-102, K-260, K-200B, K-220, K-240 and K-270) was used. Here, reaction buffer, E1, E2 and E3 enzyme (and p53 substrate in case of MDM2) were mixed and pre-incubated with compound or DMSO for 5 minutes at room temperature before adding Mg^2+-ATP and mono-ubiquitin for reaction start. Ubiquitination was visualized by Western Blot analyses.

T1 sequence (Q12809 whole entry): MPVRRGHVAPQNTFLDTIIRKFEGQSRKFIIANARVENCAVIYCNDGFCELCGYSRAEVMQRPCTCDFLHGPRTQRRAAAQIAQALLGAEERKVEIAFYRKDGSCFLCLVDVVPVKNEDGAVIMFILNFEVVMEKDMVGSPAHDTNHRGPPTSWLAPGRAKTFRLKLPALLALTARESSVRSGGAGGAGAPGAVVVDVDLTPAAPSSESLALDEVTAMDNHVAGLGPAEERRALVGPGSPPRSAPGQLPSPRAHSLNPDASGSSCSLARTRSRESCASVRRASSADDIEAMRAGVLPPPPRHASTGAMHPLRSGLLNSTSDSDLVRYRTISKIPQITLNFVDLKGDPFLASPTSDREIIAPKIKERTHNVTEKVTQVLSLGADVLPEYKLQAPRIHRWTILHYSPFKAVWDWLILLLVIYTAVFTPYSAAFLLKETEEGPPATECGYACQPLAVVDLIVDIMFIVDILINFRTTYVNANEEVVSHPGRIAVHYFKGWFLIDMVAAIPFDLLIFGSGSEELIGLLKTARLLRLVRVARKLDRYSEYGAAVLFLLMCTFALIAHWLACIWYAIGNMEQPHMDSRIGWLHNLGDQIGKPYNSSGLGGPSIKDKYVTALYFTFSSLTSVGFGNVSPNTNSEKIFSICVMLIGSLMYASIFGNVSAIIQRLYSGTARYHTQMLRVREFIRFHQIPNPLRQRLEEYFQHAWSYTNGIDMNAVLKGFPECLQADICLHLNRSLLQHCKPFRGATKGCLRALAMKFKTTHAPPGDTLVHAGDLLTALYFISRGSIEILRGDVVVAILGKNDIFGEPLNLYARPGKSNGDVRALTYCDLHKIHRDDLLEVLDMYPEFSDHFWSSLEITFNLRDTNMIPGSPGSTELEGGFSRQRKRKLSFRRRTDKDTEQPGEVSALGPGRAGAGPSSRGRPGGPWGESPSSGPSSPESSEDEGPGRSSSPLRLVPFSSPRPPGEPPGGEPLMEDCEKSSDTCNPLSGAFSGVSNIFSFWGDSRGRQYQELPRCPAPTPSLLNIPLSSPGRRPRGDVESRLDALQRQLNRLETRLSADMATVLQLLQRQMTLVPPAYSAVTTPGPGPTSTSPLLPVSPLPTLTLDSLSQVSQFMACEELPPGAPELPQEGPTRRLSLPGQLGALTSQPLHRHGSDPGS
interaction of Ubc13 with Uev1a, sequence (P61088 whole entry): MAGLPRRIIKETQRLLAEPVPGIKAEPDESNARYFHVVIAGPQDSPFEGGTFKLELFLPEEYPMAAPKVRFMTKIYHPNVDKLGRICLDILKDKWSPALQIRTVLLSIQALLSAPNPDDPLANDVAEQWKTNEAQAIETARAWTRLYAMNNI
interaction of Ubc13 with Uev1a, sequence (Q13404 whole entry): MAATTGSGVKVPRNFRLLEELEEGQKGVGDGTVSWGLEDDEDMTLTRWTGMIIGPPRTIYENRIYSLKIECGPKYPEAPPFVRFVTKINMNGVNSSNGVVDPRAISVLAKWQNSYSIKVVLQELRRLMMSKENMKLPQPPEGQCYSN
T3 sequence (Q05086 whole entry): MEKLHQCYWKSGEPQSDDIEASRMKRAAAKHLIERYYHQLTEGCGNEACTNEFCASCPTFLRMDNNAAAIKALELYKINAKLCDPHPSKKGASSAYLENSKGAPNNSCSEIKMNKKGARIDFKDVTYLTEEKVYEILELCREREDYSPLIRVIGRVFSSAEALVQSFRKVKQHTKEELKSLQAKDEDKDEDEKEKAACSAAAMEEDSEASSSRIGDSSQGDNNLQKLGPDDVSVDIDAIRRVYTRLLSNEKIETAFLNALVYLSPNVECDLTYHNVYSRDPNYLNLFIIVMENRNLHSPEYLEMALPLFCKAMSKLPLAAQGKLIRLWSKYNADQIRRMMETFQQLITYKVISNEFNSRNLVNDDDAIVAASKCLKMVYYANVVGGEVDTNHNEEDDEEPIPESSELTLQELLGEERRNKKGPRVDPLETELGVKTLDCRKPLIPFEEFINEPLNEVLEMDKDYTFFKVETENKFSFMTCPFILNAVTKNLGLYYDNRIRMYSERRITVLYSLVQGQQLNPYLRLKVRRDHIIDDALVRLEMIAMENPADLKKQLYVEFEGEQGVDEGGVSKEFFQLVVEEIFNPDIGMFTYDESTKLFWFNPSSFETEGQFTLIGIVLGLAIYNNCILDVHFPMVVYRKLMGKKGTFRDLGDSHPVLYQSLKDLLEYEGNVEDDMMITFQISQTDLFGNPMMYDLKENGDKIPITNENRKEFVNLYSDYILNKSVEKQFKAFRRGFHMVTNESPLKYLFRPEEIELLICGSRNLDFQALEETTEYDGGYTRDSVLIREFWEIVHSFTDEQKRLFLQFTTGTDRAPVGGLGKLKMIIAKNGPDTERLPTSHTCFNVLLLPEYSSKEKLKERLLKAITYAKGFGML

For orientation: half-life means the time in which the quantity being followed falls by half. The term bioavailability denotes the share of a dose that reaches the circulation, judged against a reference dose that is usually intravenous. By pIC50 is commonly meant the negative decadic logarithm of the IC50, by convention in mol/L. Lower therefore signals a large IC50. As for `Cc1nn(-c2ccc3nnc(C)n3n2)c(C)c1CCC(=O)N1CCC(Cc2ccccc2)CC1` [Compound 3, 1-(4-benzylpiperidin-1-yl)-3-(3,5-dimethyl-1-(3-methyl-[1,2,4]triazolo[4,3-b]pyridazin-6-yl)-1H-pyrazol-4-yl)propan-1-one], the “binding of Ubc13 to Uev1a” value in data set [1] is “did not affect”. Further, the “viability of cancer cell lines” value in data set [2] was “major effect is on cancer cells of blood origin”. In addition, the “viability of control cell lines HS-5 and MCF 10A” value in data set [2] is listed as “not affected at all”. Further, the “adverse effects on animals during PK studies” value in data set [3] (10 mg/kg) is listed as “no obvious adverse effects”. Moreover, in data set [3] (IV, PO, IP 10 mg/kg), the distribution phase entry is recorded as “rapid initial distribution phase”. Besides, the half-life in data set [3] (in vivo, iv, 10 mg/kg) was found to be 1.33 h; in data set [3] (in vivo, po, 10 mg/kg) it was 2.12 h; in data set [3] (in vivo, IP administration, 10 mg/kg) it was 3.07 h. Also, in data set [3] (in vivo, po, calculated, 10 mg/kg), the bioavailability is around 45%. The hERG inhibition result on hERG is given as “does not very much inhibit hERG”. In the data set with p-IκBα (Ser32/36), the “p-IκBα protein levels, ALPHASurefire” value is recorded as “more active”. In addition, the negative-log IC50 (pIC50) at TRAF6-UBC13 interaction is at least 5.52. For the same compound, the “cytokine secretion of IL-2 and TNFα” value in the data set on IL-2 and TNFα is recorded as “dose-dependently decreased”. At E6AP, the “S5A ubiquitination by E6AP” value is listed as “not affected”.
